Measurements taken from patent US20240254129A1, “HETEROCYCLIC COMPOUNDS AND USES THEREOF” (Kumquat Biosciences Inc., priority 2021, published 2024).
Like-named read-outs stand apart in the source and are kept apart here.

What was measured:
[1] = molecular target: GST-tagged K-Ras mutant / His-tagged hSOS1 (Homo sapiens, UniProt P01116); assay: HTRF assay, K-Ras mutant / SOS1 interaction; assay type: binding; details: read-out: IC50 against mutant Kras
Source text: (§1) This assay can be also used to assess a selective inhibition of a mutant Ras protein relative to a wildtype, or relative to a different mutant Ras protein. For example, the equilibrium interaction of wildtype Kras or K-Ras mutant (e.g., wildtype or a mutant thereof including those mentioned in Example 6) with SOS1 (e.g., hSOS1) can be assessed as a proxy or an indication for a subject compound's ability to bind and inhibit Ras protein. HTRF assay detects from (i) a fluorescence resonance energy transfer (FRET) donor (e.g., antiGST-Europium) that is bound to GST-tagged K-Ras mutant to (ii) a FRET acceptor (e.g., anti-6His-XL665) bound to a His-tagged hSOS1.
(§2) The assay buffer can contain ˜5 mM HEPES pH 7.4, ˜150 mM NaCl, ˜ 1 mM DTT, 0.05% BSA and 0.0025% (v/v) Igepal. A Ras working solution is prepared in an assay buffer containing typically a suitable amount of the protein construct (e.g., GST-tagged K-Ras mutant) and the FRET donor (e.g., antiGST-Eu(K) from Cisbio, France). A SOS1 working solution is prepared in an assay buffer containing suitable amount of the protein construct (e.g., His-hSOS1) and the FRET acceptor (e.g., anti-6His-XL665 from Cisbio, France). A suitable amount of the protein construct will depend on the range of activity or range of IC50 values being detected or under investigation. For detecting IC50 within a range of 500 nM, the protein constructs of the same range of molarity can be utilized.
(§3) A fixed volume of DMSO with or without test compound is transferred into a 384-well plate. Ras working solution is added to all wells of the test plate. SOS1 working solution is added to all wells except for those that are subsequently filled the inhibitor control solution. Upon incubation for about 10 minutes or longer, the fluorescence is measured with a M1000Pro plate reader (Tecan) using HTRF detection (excitation 337 nm, emission 1: 620 nm, emission 2: 665 nm). Compounds are tested in duplicates at different concentrations (for example, 10 μM, 2.5 μM, 0.63 μM, 0.16 μM, 0.04 µM, 0.01 μM test compound). The ratiometric data (i.e., emission 2 divided by emission 1) is used to calculate IC50 values against Ras using GraphPad Prism (GraphPad software). Following this general procedure, samples were tested with or without a subject compound disclosed herein including compounds exemplified in Table 1 to assess their abilities to inhibit K-Ras signaling or their respective IC50 values against a given Ras protein (e.g., a given mutant K-Ras) of interest.

[2] = molecular target: T1, wildtype Kras / hSOS1 (Homo sapiens, UniProt P01116); assay: HTRF assay, wildtype Kras / SOS1 interaction; assay type: binding; details: read-out: IC50 against wildtype Kras
T1 construct: made in house; host or cells: E. coli BL21 (DE3)
T1 sequence (P01116 1-188 isoform P01116-2): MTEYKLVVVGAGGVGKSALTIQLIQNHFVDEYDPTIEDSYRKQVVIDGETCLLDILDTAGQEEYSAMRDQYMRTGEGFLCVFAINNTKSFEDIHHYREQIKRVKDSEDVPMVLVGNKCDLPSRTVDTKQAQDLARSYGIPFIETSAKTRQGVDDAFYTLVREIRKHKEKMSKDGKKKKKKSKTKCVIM
Source text: as §1, §2, §3

[3] = compound nos. 102-196, general methodology of example 5
[4] = compound nos. 201-213, general methodology of example 5

GST-tagged K-Ras mutant / His-tagged hSOS1, sequence (P01116 whole entry G12D, form open): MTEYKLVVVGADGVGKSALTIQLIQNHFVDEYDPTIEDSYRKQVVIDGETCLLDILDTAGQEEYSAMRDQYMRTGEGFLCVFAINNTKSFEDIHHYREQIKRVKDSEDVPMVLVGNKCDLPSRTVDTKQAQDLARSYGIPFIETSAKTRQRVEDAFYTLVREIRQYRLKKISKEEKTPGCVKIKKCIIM

SMILES | IC50 [1, 3] [nM] | IC50 ([1]; compound nos. 401-703) [nM] | IC50 ([2]; compound nos. 401-703) [nM] | also measured
CN1CCC[C@H]1COc1nc(N2CCNC3COCC32)c2cc(Cl)c(-c3cccc4sc(N)nc34)c(F)c2n1 (stereo partly drawn) [Compound 107, 4-(6-chloro-8-fluoro-4-(hexahydrofuro[3,4-b]pyr-azin-1(2H)-yl)-2-(((S)-1-methylpyrrolidin-2-yl)meth-oxy)quinazolin-7-yl)benzo-[d]thiazol-2-amine] | > 500 |  |  | IC50 [2, 3]: > 500 nM
Cn1cnnc1COc1nc(N2CCNCC(F)(F)C2)c2cc(Cl)c(-c3cccc4sc(N)nc34)c(F)c2n1 [Compound 131, 4-(6-chloro-4-(6,6-difluoro-1,4-diazepan-1-yl)-8-fluoro-2-((4-methyl-4H-1,2,4-triazol-3-yl)methoxy)quin-azolin-7-yl)benzo[d]thiazol-2-amine] | > 500 |  |  | IC50 [2, 3]: > 500 nM
N#Cc1n[nH]c2c(F)ccc(-c3c(Cl)cc4c(N5CC6CCC(C5)N6)nc(OC[C@@]56CCCN5C[C@H](F)C6)nc4c3F)c12 [Compound 531, 4-(4-(3,8-diazabicyclo-[3.2.1]octan-3-yl)-6-chloro-8-fluoro-2-(((2R,7aS)-2-fluorotetrahydro-1H-pyrrol-izin-7a(5H)-yl)methoxy)-quin-azolin-7-yl)-7-fluoro-1H-indazole-3-carbonitrile] |  | > 500 | > 500 | 
Nc1nc2ccccc2c(-c2ccc3c(N4CC5CCC(C4)N5)nc(OCC45CCCN4CCC5)nc3c2F)c1Cl [Compound 493, 4-(4-(3,8-diazabicyclo-[3.2.1]octan-3-yl)-8-fluoro-2-((tetrahydro-1H-pyrrol-izin-7a(5H)-yl)methoxy)-quinazolin-7-yl)-3-chloro-quinolin-2-amine] |  | > 500 | < 500 | 
Nc1nc2c(-c3c(Cl)cc4c(N5C[C@H]6CC[C@@H](C5)N6)nc(OCCCN5CCCC5)nc4c3F)ccc(F)c2s1 [Compound 208, 4-(4-((1R,5S)-3,8-diaza-bicyclo[3.2.1]octan-3-yl)-6-chloro-8-fluoro-2-(3-(pyrrolidin-1-yl)propoxy)-quinazolin-7-yl)-7-fluoro-benzo[d]thiazol-2-amine] |  |  |  | IC50 [1, 4]: < 1500 nM; IC50 [2, 4]: < 1500 nM
N#CCCc1cc2c(N3CC4CCC(C3)N4)nc(OC[C@@]34CCCN3C[C@H](F)C4)nc2c(F)c1-c1ccc(F)c2sc(N)c(C#N)c12 [Compound 464, 4-(4-(3,8-diazabicyclo-[3.2.1]octan-3-yl)-6-(2-cyanoethyl)-8-fluoro-2-(((2R,7aS)-2-fluorotetra-hydro-1H-pyrrolizin-7a(5H)-yl)methoxy)quin-azolin-7-yl)-2-amino-7-fluorobenzo[b]thiophene-3-carbonitrile] |  | < 500 | < 500 | 
Cc1cc2[nH]ncc2c(-c2c(Cl)cc3c(N4CC5CCC(C4)N5)nc(OC[C@@]45CCCN4C[C@H](F)C5)nc3c2F)c1Cl [Compound 425, 4-(3,8-diazabicyclo[3.2.1]-octan-3-yl)-6-chloro-7-(5-chloro-6-methyl-1H-indazol-4-yl)-8-fluoro-2-(((2R,7aS)-2-fluorotetrahydro-1H-pyrrolizin-7a(5H)-yl)meth-oxy)quinazoline] |  | > 500 | < 500 | 
CN1CCC[C@H]1COc1nc(N2CCCOCC2)c2cc(Cl)c(-c3ccc(F)c4sc(N)nc34)c(F)c2n1 [Compound 147, 4-(6-chloro-8-fluoro-2-(((S)-1-methylpyrrolidin-2-yl)-methoxy)-4-(1,4-oxazepan-4-yl)quinazolin-7-yl)-7-fluorobenzo[d]thiazol-2-amine] | < 500 |  |  | IC50 [2, 3]: < 500 nM
Nc1nc2c(-c3c(Cl)cc4c(N5CCNCC(O)C5)nc(OCC56CCCN5CCC6)nc4c3F)ccc(F)c2s1 (centres unmarked) [Compound 161, 1-(7-(2-amino-7-fluoro-benzo[d]thiazol-4-yl)-6-chloro-8-fluoro-2-((tetra-hydro-1H-pyrrolizin-7a(5H)-yl)methoxy)quinazolin-4-yl)-1,4-diazepan-6-ol] | < 500 |  |  | IC50 [2, 3]: < 500 nM
CS(=O)(=O)N1CCCN(c2nc(OC[C@@]34CCCN3C[C@H](F)C4)nc3c(F)c(-c4ccc(F)c5sc(N)nc45)c(Cl)cc23)CC1 [Compound 644, 4-(6-chloro-8-fluoro-2-(((2R,7aS)-2-fluorotetra-hydro-1H-pyrrolizin-7a(5H)-yl)methoxy)-4-(4-(methylsulfonyl)-1,4-diazepan-1-yl)quinazolin-7-yl)-7-fluorobenzo[d]thia-zol-2-amine] |  | < 500 | > 500 | 
Nc1nc2c(-c3c(Cl)cc4c(N5CC6CNCC(C5)N6)nc(OC[C@@]56CCCN5C[C@H](F)C6)nc4c3F)ccc(F)c2s1 [Compound 639, 4-(4-(3,7,9-triazabicyclo-[3.3.1]nonan-3-yl)-6-chloro-8-fluoro-2-(((2R,7aS)-2-fluorotetrahydro-1H-pyrrol-izin-7a(5H)-yl)methoxy)-quinazolin-7-yl)-7-fluoro-benzo[d]thiazol-2-amine] |  | < 500 | > 500 | 
Nc1cccc(-c2ccccc2-c2c(Cl)cc3c(N4CCCCCC4)nc(OCC45CCCN4CCC5)nc3c2F)c1 [Compound 666, 2′-(4-(azepan-1-yl)-6-chloro-8-fluoro-2-((tetrahydro-1H-pyrrolizin-7a(5H)-yl)meth-oxy)quinazolin-7-yl)-[1,1′-biphenyl]-3-amine] |  | > 500 | > 500 | 
Nc1nc2c(-c3c(Cl)cc4c(N5CC6CCC(C5)NC6)nc(OC[C@@]56CCCN5C[C@H](F)C6)nc4c3F)ccc(F)c2s1 (stereo partly drawn) [Compound 213, 4-(4-(3,6-diazabicyclo-[3.2.2]nonan-3-yl)-6-chloro-8-fluoro-2-(((2R,7aS)-2-fluorotetrahydro-1H-pyrrolizin-7a(5H)-yl)meth-oxy)quinazolin-7-yl)-7-fluorobenzo[d]thiazol-2-amine] |  |  |  | IC50 [1, 4]: < 1500 nM; IC50 [2, 4]: < 1500 nM
CN1CCC[C@H]1COc1nc(N2CCSCC(F)(F)C2)c2cc(Cl)c(-c3cccc4sc(N)nc34)c(F)c2n1 [Compound 136, 4-(6-chloro-4-(6,6-difluoro-1,4-thiazepan-4-yl)-8-fluoro-2-(((S)-1-methylpyrrolidin-2-yl)methoxy)quinazolin-7-yl)benzo[d]thiazol-2-amine] | < 500 |  |  | IC50 [2, 3]: < 500 nM
Cc1ccc2sc(N)nc2c1-c1c(Cl)cc2c(N3CC4CCC(C3)N4)nc(OCC34CCCN3CCC4)nc2c1F [Compound 468, 4-(4-(3,8-diazabicyclo-[3.2.1]octan-3-yl)-6-chloro-8-fluoro-2-((tetrahydro-1H-pyrrolizin-7a(5H)-yl)meth-oxy)quinazolin-7-yl)-5-methylbenzo[d]thiazol-2-amine] |  | < 500 | < 500 | 
Nc1nc2c(-c3c(Cl)cc4c(N5CC6CCC(C5)N6)nc(OCC5(CN6CC[C@H](F)C6)CC5)nc4c3F)ccc(F)c2s1 [Compound 443, 4-(4-(3,8-diazabicyclo-[3.2.1]octan-3-yl)-6-chloro-8-fluoro-2-((1-(((S)-3-fluoropyrrolidin-1-yl)meth-yl)cyclopropyl)methoxy)-quinazolin-7-yl)-7-fluoro-benzo[d]thiazol-2-amine] |  | < 500 | < 500 | 
N#CCC1CNCCN(c2nc(OCC34CCCN3CCC4)nc3c(F)c(-c4ccc(F)c5sc(N)nc45)c(Cl)cc23)C1 (centres unmarked) [Compound 188, 2-(1-(7-(2-amino-7-fluoro-benzo[d]thiazol-4-yl)-6-chloro-8-fluoro-2-((tetra-hydro-1H-pyrrolizin-7a(5H)-yl)methoxy)quin-azolin-4-yl)-1,4-diazepan-6-yl)acetonitrile] | < 500 |  |  | 
CN1CCC[C@H]1COc1nc(N2CCC(O)C(F)CC2)c2cc(Cl)c(-c3cccc4sc(N)nc34)c(F)c2n1 (stereo partly drawn) [Compound 675, 1-(7-(2-aminobenzo[d]-thiazol-4-yl)-6-chloro-8-fluoro-2-(((S)-1-methyl-pyrrolidin-2-yl)methoxy)-quinazolin-4-yl)-5-fluoro-azepan-4-ol] |  |  | > 500 | 
CN1CCC[C@H]1COc1nc(N2CCCC(NC3CC3)CC2)c2cc(Cl)c(-c3cccc4sc(N)nc34)c(F)c2n1 (stereo partly drawn) [Compound 590, 4-(6-chloro-4-(4-(cycloprop-ylamino)azepan-1-yl)-8-fluoro-2-(((S)-1-methylpyr-rolidin-2-yl)methoxy)quin-azolin-7-yl)benzo[d]thiazol-2-amine] |  | > 500 |  | 
